One block for each compound: values may come before it.
Experiments:
[1] = target: Kappa-type opioid receptor (Homo sapiens) (UniProt P41145); details: Compound concentration 10.0 uM
[2] = target: Sigma intracellular receptor 2 (Homo sapiens) (UniProt Q5BJF2); details: Compound concentration 10.0 uM
[3] = target: Mu-type opioid receptor (Homo sapiens) (UniProt P35372); details: Compound concentration 10.0 uM
[4] = target: Melatonin receptor type 1A (Homo sapiens) (UniProt P48039); assay: MT1 (ML1A) (h) Eurofins-Cerep binding assay; parameters: ligand concentration 0.01 nM; details: filed as agonist, Compound concentration 10.0 uM
[5] = target: GABA-A receptor; anion channel (Rattus norvegicus) (UniProt O09028+P15431+P18506+P18508+P19969+P20236+P23574+P23576+P28471+P28473+P30191+P62813+P63079+P63138+Q91ZM7+Q9ES14); assay: Cl- channel (GABA-gated) Eurofins-Cerep binding assay; assay type: protein-complex assay; parameters: ligand concentration 3 nM; details: filed as antagonist, Compound concentration 10.0 uM
[6] = target: 5-hydroxytryptamine receptor 7 (Homo sapiens) (UniProt P34969); assay: 5-HT7 (h) Eurofins-Cerep binding assay; parameters: ligand concentration 4 nM; details: filed as agonist, Compound concentration 10.0 uM
[7] = target: Cholecystokinin receptor type A (Homo sapiens) (UniProt P32238); assay: CCK1 (CCKA) (h) Eurofins-Cerep binding assay; parameters: ligand concentration 0.08 nM; details: filed as agonist, Compound concentration 10.0 uM
[8] = target: Mu-type opioid receptor (Homo sapiens) (UniProt P35372); assay: mu (MOP) (h) Eurofins-Cerep binding assay; parameters: ligand concentration 0.5 nM; details: filed as agonist, Compound concentration 10.0 uM
[9] = target: Neuropeptide Y receptor type 1 (Homo sapiens) (UniProt P25929); assay: Y1 (h) Eurofins-Cerep binding assay; parameters: ligand concentration 0.025 nM; details: filed as agonist, Compound concentration 10.0 uM
[10] = target: Nociceptin receptor (Homo sapiens) (UniProt P41146); assay: NOP (ORL1) (h) Eurofins-Cerep binding assay; parameters: ligand concentration 0.06 nM; details: filed as agonist, Compound concentration 10.0 uM
[11] = target: L-type Ca2+ channel (dihydropyridine site) (Rattus norvegicus, UniProt P22002+P27732+Q02485); assay: Ca2+ channel (L, dihydropyridine site) Eurofins-Cerep binding assay; assay type: protein assay; parameters: incubation time 90 min, incubation temperature RT, ligand concentration 0.1 nM; details: rat cerebral cortex, probe [3H]nitrendipine, compound concentration 10 uM, read-out: % Inhibition of Control Specific Binding (Mean n=2)
[12] = species on record: Rattus norvegicus; assay: SKCa channel Eurofins-Cerep binding assay; parameters: ligand concentration 0.007 nM; details: filed as antagonist, Compound concentration 10.0 uM
[13] = target: T1, Muscarinic acetylcholine receptor M2 (Homo sapiens) (UniProt P08172); assay: M2 (h) Eurofins-Cerep binding assay; parameters: ligand concentration 2 nM; details: filed as antagonist, Compound concentration 10.0 uM
T1 sequence (whole entry): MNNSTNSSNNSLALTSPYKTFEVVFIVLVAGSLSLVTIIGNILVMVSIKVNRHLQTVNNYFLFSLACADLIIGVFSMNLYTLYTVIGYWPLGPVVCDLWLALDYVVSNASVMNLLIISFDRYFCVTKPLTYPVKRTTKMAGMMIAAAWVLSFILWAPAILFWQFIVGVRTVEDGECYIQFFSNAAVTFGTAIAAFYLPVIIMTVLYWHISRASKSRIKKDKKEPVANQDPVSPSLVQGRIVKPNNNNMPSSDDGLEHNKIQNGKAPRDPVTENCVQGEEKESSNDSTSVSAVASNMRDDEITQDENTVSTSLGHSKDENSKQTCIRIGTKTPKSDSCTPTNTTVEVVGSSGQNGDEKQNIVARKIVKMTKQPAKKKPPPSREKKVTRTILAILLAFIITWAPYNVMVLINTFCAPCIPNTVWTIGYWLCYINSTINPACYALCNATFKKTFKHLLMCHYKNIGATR

[14] = target: Neuropeptide Y receptor type 2 (Homo sapiens) (UniProt P49146); assay: Y2 (h) Eurofins-Cerep binding assay; parameters: ligand concentration 0.015 nM; details: filed as agonist, Compound concentration 10.0 uM
[15] = target: 5-hydroxytryptamine receptor 5A (Homo sapiens, UniProt P47898); assay: GPCRScan assay: inhibition of 5-HT5A; parameters: radioligand conc. used [nm] 2.0 - 3.3, parental cells Flp-In CHO
[16] = species on record: Rattus norvegicus; assay: KV channel Eurofins-Cerep binding assay; details: filed as antagonist, Compound concentration 10.0 uM
[17] = target: Type-1 angiotensin II receptor (Homo sapiens) (UniProt P30556); assay: AT1 (h) Eurofins-Cerep binding assay; parameters: ligand concentration 0.05 nM; details: filed as antagonist, Compound concentration 10.0 uM
[18] = target: Adenosine receptor A1 (Homo sapiens) (UniProt P30542); assay: A1 (h) Eurofins-Cerep binding assay; parameters: ligand concentration 1 nM; details: filed as antagonist, Compound concentration 10.0 uM
[19] = target: T2, Muscarinic acetylcholine receptor M1 (Homo sapiens) (UniProt P11229); assay: M1 (h) Eurofins-Cerep binding assay; parameters: ligand concentration 2 nM; details: filed as antagonist, Compound concentration 10.0 uM
T2 sequence (whole entry): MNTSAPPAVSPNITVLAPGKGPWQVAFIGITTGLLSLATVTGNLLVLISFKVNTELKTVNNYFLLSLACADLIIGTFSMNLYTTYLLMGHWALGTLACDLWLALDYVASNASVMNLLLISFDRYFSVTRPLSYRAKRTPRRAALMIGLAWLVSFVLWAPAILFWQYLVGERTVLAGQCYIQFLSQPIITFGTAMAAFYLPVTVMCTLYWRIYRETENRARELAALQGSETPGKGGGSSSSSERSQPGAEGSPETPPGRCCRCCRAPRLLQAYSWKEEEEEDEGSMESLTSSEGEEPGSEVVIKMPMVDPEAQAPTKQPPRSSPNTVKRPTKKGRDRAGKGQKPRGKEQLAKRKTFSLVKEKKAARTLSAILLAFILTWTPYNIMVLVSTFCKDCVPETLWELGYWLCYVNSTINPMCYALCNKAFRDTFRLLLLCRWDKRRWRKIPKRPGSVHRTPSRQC

[20] = target: 5-hydroxytryptamine receptor 6 (Homo sapiens, UniProt P50406); assay: 5-HT6 (h) Eurofins-Cerep binding assay; parameters: ligand concentration 2 nM; details: filed as agonist, Compound concentration 10.0 uM
[21] = target: T3, Muscarinic acetylcholine receptor M5 (Homo sapiens) (UniProt P08912); assay: M5 (h) Eurofins-Cerep binding assay; parameters: ligand concentration 0.3 nM; details: filed as antagonist, Compound concentration 10.0 uM
T3 sequence (whole entry): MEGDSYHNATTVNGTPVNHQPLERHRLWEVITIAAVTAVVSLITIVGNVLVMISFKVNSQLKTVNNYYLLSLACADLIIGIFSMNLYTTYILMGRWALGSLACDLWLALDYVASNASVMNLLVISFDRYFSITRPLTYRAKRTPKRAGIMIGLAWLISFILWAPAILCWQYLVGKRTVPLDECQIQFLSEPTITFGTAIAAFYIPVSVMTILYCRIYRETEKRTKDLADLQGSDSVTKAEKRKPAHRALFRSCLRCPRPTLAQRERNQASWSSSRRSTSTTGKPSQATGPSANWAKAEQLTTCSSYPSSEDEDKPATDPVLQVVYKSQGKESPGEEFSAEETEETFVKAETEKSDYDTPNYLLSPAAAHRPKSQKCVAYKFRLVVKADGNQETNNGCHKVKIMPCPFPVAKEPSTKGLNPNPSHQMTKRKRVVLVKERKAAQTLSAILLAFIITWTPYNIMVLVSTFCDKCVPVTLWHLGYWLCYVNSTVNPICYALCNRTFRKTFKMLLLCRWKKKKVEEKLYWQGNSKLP

[22] = target: Galanin receptor type 2 (Homo sapiens) (UniProt O43603); assay: GAL2 (h) Eurofins-Cerep binding assay; parameters: ligand concentration 0.05 nM; details: filed as agonist, Compound concentration 10.0 uM
[23] = target: Beta-1 adrenergic receptor (Homo sapiens) (UniProt P08588); assay: Beta1 (h) Eurofins-Cerep binding assay; parameters: ligand concentration 0.3 nM; details: filed as agonist, Compound concentration 10.0 uM
[24] = target: Adenosine receptor A2a (Homo sapiens) (UniProt P29274); assay: A2A (h) Eurofins-Cerep binding assay; parameters: ligand concentration 6 nM; details: filed as agonist, Compound concentration 10.0 uM
[25] = target: Cannabinoid receptor 1 (Homo sapiens) (UniProt P21554); assay: CB1 (h) Eurofins-Cerep binding assay; parameters: ligand concentration 0.5 nM; details: filed as agonist, Compound concentration 10.0 uM
[26] = target: Endothelin-1 receptor (Homo sapiens) (UniProt P25101); assay: ETA (h) Eurofins-Cerep binding assay; parameters: ligand concentration 0.03 nM; details: filed as agonist, Compound concentration 10.0 uM
Sequence of Endothelin-1 receptor (Homo sapiens) (P25101 whole entry): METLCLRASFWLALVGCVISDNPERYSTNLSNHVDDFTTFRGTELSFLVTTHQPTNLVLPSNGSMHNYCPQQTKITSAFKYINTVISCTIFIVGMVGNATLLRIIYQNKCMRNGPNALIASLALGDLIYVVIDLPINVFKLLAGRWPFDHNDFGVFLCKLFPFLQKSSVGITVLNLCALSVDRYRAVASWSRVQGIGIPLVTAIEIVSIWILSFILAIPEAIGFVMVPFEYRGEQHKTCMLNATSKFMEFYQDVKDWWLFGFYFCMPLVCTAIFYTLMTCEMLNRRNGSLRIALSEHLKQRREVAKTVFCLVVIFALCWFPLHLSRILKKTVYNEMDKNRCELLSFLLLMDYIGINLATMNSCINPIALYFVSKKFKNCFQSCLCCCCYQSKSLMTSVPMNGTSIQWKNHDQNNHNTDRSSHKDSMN

Sequence of Mu-type opioid receptor (Homo sapiens) (P35372 whole entry): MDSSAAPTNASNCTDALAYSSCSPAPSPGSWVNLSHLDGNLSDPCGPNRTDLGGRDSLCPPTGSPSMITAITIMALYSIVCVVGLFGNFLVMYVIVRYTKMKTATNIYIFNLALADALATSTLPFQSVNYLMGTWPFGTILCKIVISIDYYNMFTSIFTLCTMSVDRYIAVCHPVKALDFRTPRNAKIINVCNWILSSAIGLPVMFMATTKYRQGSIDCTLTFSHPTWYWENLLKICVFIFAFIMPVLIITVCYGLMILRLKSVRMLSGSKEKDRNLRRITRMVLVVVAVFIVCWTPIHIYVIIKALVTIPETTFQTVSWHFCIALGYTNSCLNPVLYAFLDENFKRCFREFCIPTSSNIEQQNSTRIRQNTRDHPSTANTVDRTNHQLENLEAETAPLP
Sequence of 5-hydroxytryptamine receptor 5A (P47898 whole entry): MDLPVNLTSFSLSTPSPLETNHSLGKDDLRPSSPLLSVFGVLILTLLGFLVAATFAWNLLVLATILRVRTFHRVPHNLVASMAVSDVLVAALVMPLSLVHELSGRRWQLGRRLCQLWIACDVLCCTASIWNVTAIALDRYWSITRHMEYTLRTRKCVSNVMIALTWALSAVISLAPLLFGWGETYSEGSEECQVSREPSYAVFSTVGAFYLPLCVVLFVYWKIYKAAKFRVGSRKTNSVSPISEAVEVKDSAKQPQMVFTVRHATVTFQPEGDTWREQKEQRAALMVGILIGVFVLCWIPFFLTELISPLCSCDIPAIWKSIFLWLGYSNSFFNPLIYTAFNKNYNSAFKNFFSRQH
Sequence of Neuropeptide Y receptor type 2 (Homo sapiens) (P49146 whole entry): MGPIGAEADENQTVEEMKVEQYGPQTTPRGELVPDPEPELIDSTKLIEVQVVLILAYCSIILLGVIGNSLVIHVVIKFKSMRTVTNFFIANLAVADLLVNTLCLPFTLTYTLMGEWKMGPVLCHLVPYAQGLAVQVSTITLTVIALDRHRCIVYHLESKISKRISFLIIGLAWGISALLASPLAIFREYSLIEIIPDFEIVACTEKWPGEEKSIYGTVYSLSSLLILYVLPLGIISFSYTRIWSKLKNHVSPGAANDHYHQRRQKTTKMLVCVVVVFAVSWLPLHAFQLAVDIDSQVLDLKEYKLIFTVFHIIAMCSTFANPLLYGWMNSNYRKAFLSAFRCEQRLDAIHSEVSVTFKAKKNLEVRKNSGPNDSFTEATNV
Sequence of 5-hydroxytryptamine receptor 7 (Homo sapiens) (P34969 whole entry): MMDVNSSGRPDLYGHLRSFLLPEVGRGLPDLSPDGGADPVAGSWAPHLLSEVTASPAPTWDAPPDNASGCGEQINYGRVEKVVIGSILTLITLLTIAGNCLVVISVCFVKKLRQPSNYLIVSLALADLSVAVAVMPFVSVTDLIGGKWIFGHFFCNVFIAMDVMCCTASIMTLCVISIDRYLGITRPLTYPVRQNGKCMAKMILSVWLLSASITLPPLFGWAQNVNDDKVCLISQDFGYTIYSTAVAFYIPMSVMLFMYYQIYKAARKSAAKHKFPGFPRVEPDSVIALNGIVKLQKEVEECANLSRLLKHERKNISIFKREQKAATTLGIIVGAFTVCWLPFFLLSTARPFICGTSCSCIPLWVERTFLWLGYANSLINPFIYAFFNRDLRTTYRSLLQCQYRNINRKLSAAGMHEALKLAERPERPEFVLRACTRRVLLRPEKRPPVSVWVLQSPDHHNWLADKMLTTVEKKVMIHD
Sequence of Nociceptin receptor (Homo sapiens) (P41146 whole entry): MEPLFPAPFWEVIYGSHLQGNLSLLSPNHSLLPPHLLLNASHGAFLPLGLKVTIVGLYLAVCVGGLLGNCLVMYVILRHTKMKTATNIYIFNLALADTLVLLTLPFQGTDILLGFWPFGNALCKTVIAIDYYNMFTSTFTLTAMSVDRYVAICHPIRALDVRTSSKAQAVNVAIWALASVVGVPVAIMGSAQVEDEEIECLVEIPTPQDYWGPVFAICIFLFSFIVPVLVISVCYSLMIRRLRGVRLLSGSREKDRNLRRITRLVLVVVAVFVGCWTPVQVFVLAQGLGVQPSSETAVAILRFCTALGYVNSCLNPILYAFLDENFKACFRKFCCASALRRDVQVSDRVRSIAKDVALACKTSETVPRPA
Sequence of Sigma intracellular receptor 2 (Homo sapiens) (Q5BJF2 whole entry): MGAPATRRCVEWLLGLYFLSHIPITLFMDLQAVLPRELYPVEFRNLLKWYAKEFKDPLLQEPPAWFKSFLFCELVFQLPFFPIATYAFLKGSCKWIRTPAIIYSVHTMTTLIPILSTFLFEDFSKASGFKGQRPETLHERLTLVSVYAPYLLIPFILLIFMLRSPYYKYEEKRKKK
Sequence of Adenosine receptor A1 (Homo sapiens) (P30542 whole entry): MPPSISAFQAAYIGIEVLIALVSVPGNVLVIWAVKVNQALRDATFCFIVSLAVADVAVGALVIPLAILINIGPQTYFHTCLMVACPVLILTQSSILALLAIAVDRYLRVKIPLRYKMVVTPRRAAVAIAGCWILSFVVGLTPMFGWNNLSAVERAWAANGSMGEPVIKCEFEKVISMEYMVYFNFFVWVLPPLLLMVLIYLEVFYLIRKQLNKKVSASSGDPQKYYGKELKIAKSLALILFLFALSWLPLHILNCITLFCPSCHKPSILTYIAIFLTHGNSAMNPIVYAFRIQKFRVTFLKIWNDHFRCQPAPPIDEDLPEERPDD
Sequence of Beta-1 adrenergic receptor (Homo sapiens) (P08588 whole entry, looked up): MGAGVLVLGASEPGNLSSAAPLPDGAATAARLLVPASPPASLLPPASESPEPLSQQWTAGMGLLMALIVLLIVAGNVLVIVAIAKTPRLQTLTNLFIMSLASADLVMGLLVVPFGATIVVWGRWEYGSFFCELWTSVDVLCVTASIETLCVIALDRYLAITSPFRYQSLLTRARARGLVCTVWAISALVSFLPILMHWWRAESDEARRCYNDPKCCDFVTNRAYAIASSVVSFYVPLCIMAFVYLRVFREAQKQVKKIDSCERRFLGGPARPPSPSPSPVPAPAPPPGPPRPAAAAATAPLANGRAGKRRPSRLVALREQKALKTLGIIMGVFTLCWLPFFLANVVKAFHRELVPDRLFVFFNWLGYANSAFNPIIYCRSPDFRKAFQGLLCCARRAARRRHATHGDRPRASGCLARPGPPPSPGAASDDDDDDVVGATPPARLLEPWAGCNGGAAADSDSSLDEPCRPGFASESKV
Sequence of Cannabinoid receptor 1 (Homo sapiens) (P21554 whole entry): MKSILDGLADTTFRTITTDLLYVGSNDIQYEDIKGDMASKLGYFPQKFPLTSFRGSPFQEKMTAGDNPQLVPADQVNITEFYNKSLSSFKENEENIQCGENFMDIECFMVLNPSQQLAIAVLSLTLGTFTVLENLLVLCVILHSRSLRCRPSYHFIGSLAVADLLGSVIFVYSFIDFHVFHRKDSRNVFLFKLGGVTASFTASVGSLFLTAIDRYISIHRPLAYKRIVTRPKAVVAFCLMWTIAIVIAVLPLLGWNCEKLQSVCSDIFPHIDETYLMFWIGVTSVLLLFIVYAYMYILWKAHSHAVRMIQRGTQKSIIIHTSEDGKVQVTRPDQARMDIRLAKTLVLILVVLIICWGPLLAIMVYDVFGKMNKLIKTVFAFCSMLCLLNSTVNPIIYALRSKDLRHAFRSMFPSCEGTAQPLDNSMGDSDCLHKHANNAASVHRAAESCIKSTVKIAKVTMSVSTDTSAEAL
Sequence of 5-hydroxytryptamine receptor 6 (P50406 whole entry): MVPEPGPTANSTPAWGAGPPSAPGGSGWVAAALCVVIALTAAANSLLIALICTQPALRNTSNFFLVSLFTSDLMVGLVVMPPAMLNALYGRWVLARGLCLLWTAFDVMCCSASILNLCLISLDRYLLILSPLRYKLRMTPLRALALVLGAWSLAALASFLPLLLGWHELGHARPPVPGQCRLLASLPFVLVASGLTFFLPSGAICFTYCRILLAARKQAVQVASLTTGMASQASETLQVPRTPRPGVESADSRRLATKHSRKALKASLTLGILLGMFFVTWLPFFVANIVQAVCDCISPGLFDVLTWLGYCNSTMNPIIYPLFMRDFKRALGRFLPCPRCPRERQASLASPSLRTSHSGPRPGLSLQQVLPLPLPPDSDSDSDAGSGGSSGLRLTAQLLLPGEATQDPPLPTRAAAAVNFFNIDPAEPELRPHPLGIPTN
Sequence of Cholecystokinin receptor type A (Homo sapiens) (P32238 whole entry): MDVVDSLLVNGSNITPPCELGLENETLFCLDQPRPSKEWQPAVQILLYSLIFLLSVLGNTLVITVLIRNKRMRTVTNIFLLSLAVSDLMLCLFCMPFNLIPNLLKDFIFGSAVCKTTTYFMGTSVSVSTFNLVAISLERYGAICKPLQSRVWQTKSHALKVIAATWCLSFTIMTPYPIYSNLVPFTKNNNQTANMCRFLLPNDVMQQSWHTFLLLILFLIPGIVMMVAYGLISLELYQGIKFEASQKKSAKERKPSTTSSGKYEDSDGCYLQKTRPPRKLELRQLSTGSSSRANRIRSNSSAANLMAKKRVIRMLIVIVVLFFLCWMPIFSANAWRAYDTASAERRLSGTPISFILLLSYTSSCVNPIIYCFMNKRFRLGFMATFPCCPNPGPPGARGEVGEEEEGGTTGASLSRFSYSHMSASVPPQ

inhibition [1]: 11%
inhibition [2]: 25%
inhibition [3]: 35.4%
SMILES: COc1cc(C(=O)O)ncc1C#Cc1ccccc1NS(=O)(=O)c1cccc2c(N(C)C)ccnc12 [MSC-0516]

% Inhibition of Control Specific Binding (Mean n=2) [4]: 15.3%
% Inhibition of Control Specific Binding (Mean n=2) [5]: 59.9%
% Inhibition of Control Specific Binding (Mean n=2) [6]: -6.6%
% Inhibition of Control Specific Binding (Mean n=2) [7]: -18.1%
% Inhibition of Control Specific Binding (Mean n=2) [8]: -8.9%
% Inhibition of Control Specific Binding (Mean n=2) [9]: -7.5%
% Inhibition of Control Specific Binding (Mean n=2) [10]: -14.7%
inhibition at 90 min, 10 µM [11]: -11%
% Inhibition of Control Specific Binding (Mean n=2) [12]: -6.7%
% Inhibition of Control Specific Binding (Mean n=2) [13]: 35.8%
% Inhibition of Control Specific Binding (Mean n=2) [14]: 8%
Ki [15]: 1630 nM
% Inhibition of Control Specific Binding (Mean n=2) [16]: -5.9%
% Inhibition of Control Specific Binding (Mean n=2) [17]: 4.2%
% Inhibition of Control Specific Binding (Mean n=2) [18]: 56.2%
% Inhibition of Control Specific Binding (Mean n=2) [19]: 4.6%
% Inhibition of Control Specific Binding (Mean n=2) [20]: 32%
% Inhibition of Control Specific Binding (Mean n=2) [21]: -3.3%
% Inhibition of Control Specific Binding (Mean n=2) [22]: 11.1%
% Inhibition of Control Specific Binding (Mean n=2) [23]: 17.4%
% Inhibition of Control Specific Binding (Mean n=2) [24]: -5.5%
% Inhibition of Control Specific Binding (Mean n=2) [25]: -11.3%
% Inhibition of Control Specific Binding (Mean n=2) [26]: -0.2%
SMILES: CCOc1ccc(S(=O)(=O)Nc2ccc(Cl)cc2C#Cc2cnc(C(=O)O)cc2OC)c2ncccc12 [MSC-4381]

Reference: ChEMBL document CHEMBL4800726, “Data for DCP probe MSC-4381” (2021)
